Experimental data: patent publication US8912223B2, “Compositions and processes for preparing 5-amino or substituted amino 1,2,3-triazoles and triazoles orotate formulations” (priority 2013, dated 2014)
Read-outs that look alike come from different tables or passages of the source.

Key:
[1] = system: Dunning R-3227-AT-1 prostate cancer model; settings: rats; compared with equivalent dose of L651582; U.S. Pat. No. 5,912,346; cited from earlier work
[2] = Gastric lesions and toxicity in rodents; settings: in vivo
Text: This may be related to the absence of use of toxic ingredients such as sodium azide or potassium azide.

[3] = assay type: in vivo; settings: dogs, PO, 175, 350, 1025 mg/kg/day, after 28 days
[4] = system: HT29 human colon tumor xenografts; assay: Anticancer activity in s.c.-implanted HT29 human colon tumor xenografts; assay type: in vivo, mice; settings: CTO 343 mg/kg/day, days 13-26; measured at 41 days; control 1436 mm^3; p=0.0050 vs control
Experimental: The effect of CTO M.W. of 580.8 and CAI M.W. of 424.6+Orotic Acid M.W. of 156.1, was studied in s.c.-implanted HT29 human colon tumor xenografts in male, athymic NCr-n u/nu mice. 6 week old mice were implanted with HT29 fragments and 13 days later were sorted in […] groups of ten. For the next 14 days (13-26 days), Group 1 control (C) received the vehicle; Group 2=343 mg/kg/dose; Group 3=240 mg/kg/day CAI+103 mg/kg/day orotic acid. At 41 days, the mean tumor volume (mm^3) was measured as shown below: • Group 1 (Control)=1436 mm^3 • Group 2 (CTO343 mg/kg/day)=864 mm^3 (p=0.0050, Gr2 vs Gr 1) • Group 3 (CAI […]+Orotic Acid 103 mg/kg/day)=1268 mm^3 (p=0.2706,Gr 3 vs Gr 1). […] However, CAI+Orotic acid formulation did show some tumor inhibition.

[5] = Bioavailability of CTO given orally as solid in capsule or as liquid in PEG-400; CAI in plasma by HPLC/MS; assay type: in vivo, dogs; settings: for Cmax / half-life: po; for Cmax: 685 mg/kg; for concentration at 1 h: measured as CAI, read-out: Plasma concentration after 1 hr
Experimental: The bioavailability of CTO (base:acid, 0.7:1.3) was determined by administering a single dose 685 mg/kg by capsule (Group 1) or by oral gavage in PEG400 (Group 2). Two dogs (1F/1M) were used in each group. Blood samples were collected at 0, 1, 2, 4, 8, 12, 24, 48, 72, and 92 hours. CAI was measured by HPLC/MS.

[6] = CTO concentration (as CAI) in brain tissue after oral dosing; assay type: in vivo, mice; settings: mouse, eight hours after treatment, read-out: CAI levels in brain tissue
Experimental: CTO was given orally (in PEG400) to six week old mice sorted in two Groups of 6. Two doses were administered-Group 1=513 mg/kg; Group 2=342 mg/kg. Eight hours after treatment with CTO, the mice were euthanized for measurement of CTO concentration (as CAI) in brain tissue.

**Q.** For NC(=O)c1nnn(Cc2cc(Cl)c(C(=O)c3ccc(Cl)cc3)c(Cl)c2)c1N.O=C(O)c1cc(=O)[nH]c(=O)[nH]1 [L651582 Orotate], which antitumor activity [1] is on record?
**A.** improved antitumor activity

**Q.** With NC(=O)c1nnn(Cc2cc(Cl)c(C(=O)c3ccc(Cl)cc3)c(Cl)c2)c1N [CAI, 5-Amino-1-(4-(4-chlorobenzoyl)-3,5-dichlorobenzyl)-1,2,3-triazole-4-carboxamide] as the compound, how does the “gastric lesions and toxicity” value [2] read?
**A.** less gastric lesions and toxicity

**Q.** What does the source list for NC(=O)c1nnn(Cc2cc(Cl)c(C(=O)c3ccc(Cl)cc3)c(Cl)c2)c1N [CTO, 5-Amino-1-(4-(4-chlorobenzoyl)-3,5-dichlorobenzyl)-1,2,3-triazole-4-carboxamide, compound with orotic acid]?
**A.** deaths [3]: no deaths occurred; mean tumor volume [4]: 864 mm^3; bioavailability ([5]; both sexes, dog, plasma, oral gavage in PEG400, single dose 685 mg/kg, dogs, read-out: Bioavailability relative to Group 1 (capsule, 100%)): 81.8%; AUC ([5]; capsule, single dose 685 mg/kg, female dog): 277 µg/mL; AUC ([5]; capsule, single dose 685 mg/kg, male dog): 326 µg/mL; Cmax ([5]; female, dog, plasma, capsule, single dose 685 mg/kg, female dog): 7950 ng/mL; Cmax ([5]; female, dog, plasma, oral gavage in PEG400, single dose 685 mg/kg, female dog): 5350 ng/mL; Cmax ([5]; male, dog, plasma, capsule, single dose 685 mg/kg, male dog): 5800 ng/mL; Cmax ([5]; male, dog, plasma, oral gavage in PEG400, single dose 685 mg/kg, male dog): 6630 ng/mL; concentration at 1 h ([5]; plasma, oral, capsule, single dose 685 mg/kg, female dog): 174 ng/mL; concentration at 1 h ([5]; plasma, oral, capsule, single dose 685 mg/kg, male dog): 155 ng/mL; half-life ([5]; plasma, capsule, single dose 685 mg/kg, female dog): 22.7 h; half-life ([5]; plasma, capsule, single dose 685 mg/kg, male dog): 18 h; concentration at 1 h ([5]; plasma, oral gavage in PEG400, single dose 685 mg/kg, female dog): 570 ng/mL; concentration at 1 h ([5]; plasma, oral gavage in PEG400, single dose 685 mg/kg, male dog): 511 ng/mL; concentration at 8 h ([6]; CTO 342 mg/kg orally in PEG400, mice): 11000 ± 1700 ng/g; concentration at 8 h ([6]; CTO 513 mg/kg orally in PEG400, mice): 15200 ± 2370 ng/g
